Calls of active or inactive are those of the source. No cut-off for these calls is given here. Residues, ends and D or L forms follow the SMILES beside them. *: point of attachment. Succinyl(O21-dexamethasone) = C[C@@H]1C[C@H]2[C@@H]3CCC4=CC(=O)C=C[C@]4(C)[C@@]3(F)[C@@H](O)C[C@]2(C)[C@@]1(O)C(=O)COC(=O)CCC(=O)*
Assays:
[1] = test system: Mus musculus; assay: Antiinflammatory activity in po dosed ICR mouse assessed as inhibition of xylene-induced edema administered for 30 mins prior to xylene challenge measured after 2 hrs; format: functional, organism-based
[2] = test system: Mus musculus; assay: Antiinflammatory activity in xylene-induced ICR mouse edema model assessed as decrease in plasma IL8 level at 25.5 umol/kg, po after 60 mins by microplate reader analysis; format: functional, organism-based
[3] = test system: A549; assay: Downregulation of DNA replication in human A549 cells at 1 uM after 48 hrs by UV-visible spectrophotometric analysis; format: functional, cell-based
[4] = test system: Mus musculus; assay: Toxicity in BALB/C mouse assessed as total volumetric bone mineral density at 1.43 umol/kg/day, po administered for 15 days (reference value: 554.3 +/- 17.2 mg/cm3); format: organism-based; settings: in vivo, 360 h
[5] = test system: Mus musculus; assay: Toxicity in BALB/C mouse assessed as decrease in dry femur weight at 1.43 umol/kg/day, po administered for 15 days; format: organism-based; settings: in vivo, 360 h
[6] = test system: Mus musculus; assay: Antiinflammatory activity in xylene-induced ICR mouse edema model assessed as decrease in plasma TNFalpha level at 25.5 umol/kg, po after 60 mins by microplate reader analysis; format: functional, organism-based
[7] = Drug metabolism in cytosome of human A549 cells assessed as dexamethasone dimer formation at 1 uM by ESI-MS analysis; format: ADME, cell-based, Cytoplasm; settings: a549, 1 µM
[8] = test system: Mus musculus; assay: Antiinflammatory activity in ICR mouse assessed as inhibition of xylene-induced edema at 25.5 umol/kg, po administered for 30 mins prior to xylene challenge measured after 2 hrs; format: functional, organism-based
[9] = test system: Mus musculus; assay: Toxicity in BALB/C mouse assessed as decrease in femur calcium level at 1.43 umol/kg/day, po administered for 15 days by o-methylphenolphthalein complexing ketone-based assay; format: organism-based; settings: in vivo, 360 h
[10] = test system: Mus musculus; assay: Toxicity in BALB/C mouse assessed as femur loss at 1.43 umol/kg/day, po administered for 15 days by pQCT analysis; format: organism-based; settings: in vivo, 360 h
[11] = test system: Mus musculus; assay: Toxicity in BALB/C mouse assessed as decrease in femur phosphor level at 1.43 umol/kg/day, po administered for 15 days by molybdenum blue-based assay; format: organism-based; settings: in vivo, 360 h
[12] = test system: Mus musculus; assay: Toxicity in BALB/C mouse assessed as decrease in ash weight at 1.43 umol/kg/day, po administered for 15 days; format: organism-based; settings: in vivo, 360 h

| Compound | inhibition [1] | Activity [2] | Activity [3] | Activity [4] | Activity [5] | Activity [6] | Drug metabolism [7] | inhibition [8] | Activity [9] | Activity [10] | Activity [11] | Activity [12] |
| --- | --- | --- | --- | --- | --- | --- | --- | --- | --- | --- | --- | --- |
| C[C@@H]1C[C@H]2[C@@H]3CCC4=CC(=O)C=C[C@]4(C)[C@@]3(F)[C@@H](O)C[C@]2(C)[C@@]1(O)C(=O)COC(=O)CCC(=O)N[C@@H](CCCNC(=N)N)C(=O)NCC(=O)N[C@@H](CC(=O)O)C(=O)N[C@@H](CO)C(=O)O ({Succinyl(O21-dexamethasone)}-RGDS-OH) | Dose-dependent effect | Active | Active | 558.5 mg/cm3 | Non-toxic | Active | metabolite_detected |  |  |  |  |  |
| CC(C)[C@H](NC(=O)[C@H](CC(=O)O)NC(=O)CNC(=O)[C@H](CCCNC(=N)N)NC(=O)CCC(=O)OCC(=O)[C@@]1(O)[C@H](C)C[C@H]2[C@@H]3CCC4=CC(=O)C=C[C@]4(C)[C@@]3(F)[C@@H](O)C[C@@]21C)C(=O)O ({Succinyl(O21-dexamethasone)}-RGDV-OH) |  | Active | Active | 540.3 mg/cm3 | Non-toxic | Active | metabolite_detected | Active |  |  |  |  |
| C[C@@H]1C[C@H]2[C@@H]3CCC4=CC(=O)C=C[C@]4(C)[C@@]3(F)[C@@H](O)C[C@]2(C)[C@@]1(O)C(=O)COC(=O)CCC(=O)N[C@@H](CCCNC(=N)N)C(=O)NCC(=O)N[C@@H](CC(=O)O)C(=O)N[C@@H](Cc1ccccc1)C(=O)O ({Succinyl(O21-dexamethasone)}-RGDF-OH) |  | Active | Active | 555.1 mg/cm3 | Non-toxic | Active | metabolite_detected | Active |  |  |  |  |
| C[C@@H]1C[C@H]2[C@@H]3CCC4=CC(=O)C=C[C@]4(C)[C@@]3(F)[C@@H](O)C[C@]2(C)[C@@]1(O)C(=O)CO [DEXAMETHASONE] |  | Active | Active | 506.3 mg/cm3 | Toxic | Active |  | Active | Toxic | Toxic | Non-toxic | Toxic |

Reference: ChEMBL document CHEMBL3739418, “RGD-peptides modifying dexamethasone: to enhance the anti-inflammatory efficacy and limit the risk of osteoporosis” (Medchemcomm, 2015)
